Experimental data as given in PMC11134608, “UBR5 forms ligand-dependent complexes on chromatin to regulate nuclear hormone receptor stability” (Molecular cell, 2023).

Legend:
androgen receptor (AR) [1] = assay: AR fluorescent reporter degradation; format: cell-based, human; conditions: n = 3; for AR reporter degradation, significance: CI-4AS-1 5, 10, 20 uM
Method: AR reporters with substitutions to the critical set of residues in the hydrophobic cleft (AR V713, V716, V730, and M734) were generated to match those found in RARA, RXRA, or GR. The wild-type AR reporter was not degraded following treatment with the synthetic AR agonist CI-4AS-1. […] Taken together, the data underscore the essentiality of the NR hydrophobic cleft for UBR5 binding and NR degradation.
Cells were analyzed for GFP vs mCherry expression.

AR^RARA mutant and UBR5 = assay: Co-immunoprecipitation of UBR5 with AR-RARA mutants; format: cell-based, human; conditions: ± CI-4AS-1 and MG132
Excerpt: (§1) Blotting was done as described above.

androgen receptor (AR) [2] = conditions: testosterone, ref [48]-[50]; cited from earlier work
Excerpt: Instead, it is shuttled […] the nucleus following agonist binding and transcriptional activation.[48]–[50] The hydrophobic cleft of AR has several amino acid differences from other NRs, which preferentially accommodate bulkier FxxLF motifs instead of the classic LxxLL.[51],[52] We hypothesized that these sequence differences might also prevent UBR5-mediated degradation and asked whether altering the hydrophobic cleft in AR could c ...

UBR5-ER = assay: In vitro FLAG-UBR5 pull-down of His-tagged ER; format: binding, human; conditions: 50 μM ER ligand
Method: 12 μL of FLAG M2 slurry were equilibrated with binding buffer (25 mM HEPES pH 7.4, 125 mM NaCl, 0.05% TWEEN-20). The resin was pelleted and excess buffer removed. 60 μL of fresh binding buffer was re-added, followed by addition of 15 pmol (2.5 μL ofa6 μM solution) of purified FLAG-UBR5 protein and incubated on a rotating wheel at 4°C for 60–90 minutes. The resin was pelleted, excess buffer removed, and 150 μL fresh binding buffer (supplemented with 50 μM ligand of interest or DMSO) added, followed by 150 pmol protein (binding partner protein of interest) and incubated for another 60 minutes. The resin was pelleted, excess buffer removed and washed with 400 μL of binding buffer (supplemented with ligand of interest or DMSO), and this process was repeated three times. The resin was pelleted, excess buffer removed and 45 μL of binding buffer supplemented with 1 mg/mL 3xFLAG peptide was added to elute proteins over 30 minutes on a rotating wheel at room temperature. The resin was pelleted, and 40 μL of the supernatant was collected and mixed with 12 μL of 5xSDS gel loading buffer. 6 μL of these samples were applied to SDS-PAGE on a 4–20% gradient gel (Biorad). The gel was transferred to a nitrocellulose membrane using the Trans-Blot Turbo Transfer System (Biorad). […]

GR = GR degradation (western blot A549; GFP-GR reporter); format: cell-based, human
Method: Reporter cell lines were seeded in triplicate at a density of 1 million cells/ml in 100 μl per well in a 96 well plate and measured once. Ligand was added by Digital Dispenser (Tecan), and incubated at 37°C for the appropriate time before reading by flow cytometry. Cells were analyzed for GFP vs mCherry expression. GFP expression was normalized to mCherry signal and ligand treatments were compared to DMSO controls.
Membranes were blocked for 30 minutes to 1 hour at room temperature in Odyssey Blocking Buffer/PBS (LI-COR Biosciences), and incubated with primary antibodies at 4 °C overnight. Stained membranes were washed three times in Tris-buffered saline with Tween 20 (TBS-T) and incubated for 1 hour at room temperature with secondary IRDye-conjugated antibodies (LI-COR Biosciences). Membranes were washed three times in TBS-T before imaging (Odyssey Imaging System, LI-COR Biosciences).

GR and UBR5 = assay: UBR5/GR interaction in cells (BRET); format: cell-based, human; conditions: ± dexamethasone, n = 3
Excerpt: Bioluminescence resonance energy transfer (BRET) experiments were done using the NanoBRET PPI kit (Promega, N1821) according to manufacturer’s instructions.

[3] = system: dexamethasone-regulated gene expression in A549 cells; assay: RNA sequencing of A549 cells; format: cell-based, human; conditions: A549, 0, 24, 48 h
Method: Cell lines were expanded, treated with ligand, and incubated at 37C. Cells were pelleted by centrifugation for 5 minutes, washed with cold PBS, and RNA was isolated by RNeasy kit (Qiagen) per manufacturer’s instructions. RNA was sent to Novogene for library preparation and sequencing, or prepared for sequencing (NEBNext, New England Biolabs) and sequenced on an Illumina NextSeq 550 sequencer.
Paired-end reads were aligned to the hg38.p13[81],[82] reference genome with the STAR[83] (v5.2.7b) aligner as part of the RSEM[99] command line tool. Gene transcript abundance was further quantified from aligned fragments using RSEM to generate a gene-by-sample matrix of expected counts. Differential expression was tested, as with the ChIP-seq data, using the DESeq[88],[93]2 and ashr[94] pipeline, this time calculating sample-specific scale factor offset using the method of median-ratio as implemented in the R package EBSeq[100] (v1.36.0). For plotting in heatmaps, genes were selected based on ChIP-seq peak annotation and subset.

[4] = system: GR and UBR5 on chromatin in A549 cells; assay: ChIP-seq of GR and UBR5 in A549 cells; format: cell-based, human
Method: Cell lines were expanded (up to 50 million), treated with ligand, and incubated at 37 °C. Cells were pelleted by centrifugation for 5 minutes, washed twice with cold PBS, and resuspended, in 5 ml of room temperature PBS. 20 μl of 0.5M Disuccinimidyl glutarate (DSG) (ThermoFisher), was added and incubated for 30 minutes at room temperature. Cells were pelleted by centrifugation and resuspended in 8.325 ml of PBS and 8.325 ml of 2% formaldehyde and incubated for 30 minutes at room temperature. Cross-linking was quenched by the addition of 1665 μl of 1 M Tris-HCl pH 8.0 and 832.5 μl of 2.5 M glycine. Cells were pelleted and washed twice with PBS. Cross-linked cells were resuspended in LB1 Buffer (50mM HEPES-KOH, pH7.5, 140mM NaCl, 1mM EDTA, 10% Glycerol, 0.5% NP-40, 0.25% Triton X-100 in distilled water) and rotated for 10 minutes at 4C. Cells were pelleted and resuspended in LB2 (10mM Tris-HCl, pH 8.0, 200mM NaCl, 1mM EDTA, 0.5mM EGTA in distilled water) and rotated for 10 minutes at 4C. Cells were pelleted and resuspended in LB3 (10mM Tris-HCL, pH 8.0, 100mM NaCl, 1mM EDTA, 0.5mM EGTA, 0.1% Na-deoxycholate, 0.5% Na-Lauroylsarcosine, 1% Triton X-100, in distilled water) sonicated (Covaris, E220). […] Fragment length and concentrations were assessed using TapeStation (Agilent) and Qubit (ThermoFisher), and libraries were sequenced on an Illumina NextSeq 550 sequencer. […]

GR with NCOA2 and UBR5 = assay: Co-immunoprecipitation time course for GR; format: cell-based, human; conditions: U937 GFP-GR, 0, 6, 12, 16, 24 h dexamethasone
Method: We performed time course co-immunoprecipitation experiments for GR and blotted for NCOA2, GR, and UBR5 at 0, 6, 12, 16, and 24 h following dexamethasone treatment. […] Unlike RARA, which binds constitutively to chromatin, GR is sequestered in the cytoplasm and rapidly translocates to the nucleus following agonist binding.[44],[45]
as §1

CN1C(=O)C=C[C@]2(C)[C@H]3CC[C@]4(C)[C@@H](C(=O)Nc5ccccc5Cl)CC[C@H]4[C@@H]3CC[C@@H]12 [CI-4AS-1]
AR reporter degradation, significance (androgen receptor (AR) [1]; AR V713F V730L M734V (RXR matched)): **** (**** p<0.00005)
AR reporter degradation, significance (androgen receptor (AR) [1]; AR V713I V730I M734I (RARA matched)): ** (**p<0.005)
AR reporter degradation, significance (androgen receptor (AR) [1]; AR V713I V730L (GR matched)): **** (**** p<0.00005)
degradation of mutant AR reporters (androgen receptor (AR) [1]; hydrophobic cleft matched to RARA, RXRA or GR): efficiently degraded
degradation of wild-type AR reporter (androgen receptor (AR) [1]; wild-type AR): not degraded
UBR5 binding to AR^RARA mutants (AR^RARA mutant and UBR5): strengthened binding in the presence of agonist

C[C@]12CC[C@H]3[C@@H](CCC4=CC(=O)CC[C@@]43C)[C@@H]1CC[C@@H]2O [testosterone]
AR stability / ligand-induced degradation (androgen receptor (AR) [2]): stabilized by its endogenous ligand testosterone and does not undergo ligand-induced degradation

C[C@]12CC[C@@H]3c4ccc(O)cc4CC[C@H]3[C@@H]1CC[C@@H]2O [estradiol, beta-Estradiol]
UBR5-ER interaction (UBR5-ER): induced by estradiol

C[C@@H]1C[C@H]2[C@@H]3CCC4=CC(=O)C=C[C@]4(C)[C@@]3(F)[C@@H](O)C[C@]2(C)[C@@]1(O)C(=O)CO [dexamethasone]
effect of UBR5 shRNAs on GR degradation (GR; A549 western blot and reporter): rescued GR degradation
GR reporter degradation with predicted degron (cleft) mutations (GR; GFP-GR mutants, likewise mutation of the UBR5 HECT domain): impaired dexamethasone-induced GR degradation
UBR5 binding to GR in cells (GR and UBR5): promoted binding of UBR5 to GR in cells
effect of UBR5 knockdown on dexamethasone-regulated gene expression [3]: alter dexamethasone-regulated gene expression
GR ChIP-seq peaks ([4]; A549, 15 min and 24 h dexamethasone): strikingly gained 15 min after addition of dexamethasone and subsequently decreased following sustained (24 h) dexamethasone treatment
UBR5 ChIP-seq peaks ([4]; A549, 15 min dexamethasone): strongly increased after 15 min of dexamethasone treatment
sequential binding of NCOA2 and UBR5 to GR (GR with NCOA2 and UBR5): GR sequentially bound NCOA2 and then UBR5
